Data from ChEMBL document CHEMBL4177580, “New 5-HT1A, 5HT2A and 5HT2C receptor ligands containing a picolinic nucleus: Synthesis, in vitro and in vivo pharmacological evaluation” (Bioorg Med Chem, 2017).
The source made the active and inactive calls. No cut-off for these calls is given here.

How the values were obtained:
[1] = tested on: Rattus norvegicus; experiment: In-vivo 5-HT1A receptor agonist activity in Wistar rat assessed as induction of lower lip retraction by measuring lower lip retraction score at 0.3 mg/kg, ip dosed 15 mins before test (reference value: 0.0 +/- 0.0)
[2] = tested on: Mus musculus; experiment: Inhibition of 8-OH-DPAT-induced hypothermia in Swiss albino mouse at 0.1 mg/kg, ip measured after 120 mins post dose co-treated with 8-OH-DPAT; format: functional, organism-based
[3] = tested on: Rattus norvegicus; experiment: In-vivo 5-HT1A receptor antagonist activity in Wistar rat assessed as reduction in 8-OH-DPAT-stimulated induction of lower lip retraction by measuring lower lip retraction score at 0.3 mg/kg, ip dosed 15 mins before test (reference value: 2.875 +/- 0.08183)

Q: For `COc1ccccc1N1CCN(CCN(C(=O)C2CCCCC2)c2ccccn2)CC1` [WAY-100,635], which Activity_index [1] is on record?
A: 0

Q: What about the inhibition [2] of the same molecule?
A: Active

Q: What about the Activity_index [3] of the same molecule?
A: 1.667
